Test results reported in PubChem BioAssay AID256 (DTP/NCI, 2004).
Several values for one entry are separate records, joined by “and”; a condition that tells them apart may be missing. Equal values may be shown once. Toxic doses and inconclusive results are not listed.

Tested on: CD2F1 mice, L1210 leukemia ip, survival T/C
Assay: NCI In Vivo Anticancer Drug Screen. Data for tumor model L1210 Leukemia (intraperitoneal) in CD2F1 (CDF1) mice
Conditions: endpoint: mean survival time, higher = longer survival
Procedure, shortened: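 Activity against a transplanted murine tumor was judged by comparing the compound group with a vehicle group. The outcome in the treated animals was divided by that in the controls.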

[1] = dose: 100.0 mg/kg/injection, schedule: Q01DX009 (ip), vehicle: saline with Tween-80
[2] = dose: 100.0 mg/kg/injection, schedule: Q04DX003 (ip), vehicle: saline
[3] = dose: 200.0 mg/kg/injection, schedule: Q01DX009 (ip), vehicle: saline with Tween-80
[4] = dose: 200.0 mg/kg/injection, schedule: Q04DX003 (ip), vehicle: saline
[5] = dose: 400.0 mg/kg/injection, schedule: Q01DX009 (ip), vehicle: saline with Tween-80
[6] = dose: 400.0 mg/kg/injection, schedule: Q04DX003 (ip), vehicle: saline
[7] = dose: 6.25 mg/kg/injection, schedule: Q04DX003 (ip), vehicle: saline
[8] = dose: 12.5 mg/kg/injection, schedule: Q04DX003 (ip), vehicle: saline
[9] = dose: 25.0 mg/kg/injection, schedule: Q04DX003 (ip), vehicle: saline
[10] = dose: 100.0 mg/kg/injection, schedule: Q01DX001 (ip), vehicle: saline with Tween-80
[11] = dose: 200.0 mg/kg/injection, schedule: Q01DX001 (ip), vehicle: saline with Tween-80
[12] = dose: 400.0 mg/kg/injection, schedule: Q01DX001 (ip), vehicle: saline with Tween-80
[13] = dose: 100.0 mg/kg/injection, schedule: Q04DX002 (ip), vehicle: saline with Tween-80
[14] = dose: 200.0 mg/kg/injection, schedule: Q04DX002 (ip), vehicle: saline with Tween-80
[15] = dose: 400.0 mg/kg/injection, schedule: Q04DX002 (ip), vehicle: saline with Tween-80
[16] = dose: 50.0 mg/kg/injection, schedule: Q01DX009 (ip), vehicle: Klucel (hydroxypropylcellulose) (HPC)
[17] = dose: 100.0 mg/kg/injection, schedule: Q01DX009 (ip), vehicle: Klucel (hydroxypropylcellulose) (HPC)

SMILES: CCOC(=O)CNC(=O)CCCCSc1ncnc2nc[nH]c12
- T/C (dose: 20.0 mg/kg/injection, schedule: Q01DX001 (ip), vehicle: saline with Tween-80): 95 % of control
- T/C (dose: 20.0 mg/kg/injection, schedule: Q01DX009 (ip), vehicle: saline with Tween-80): 98 % of control
- T/C (dose: 20.0 mg/kg/injection, schedule: Q04DX003 (ip), vehicle: saline with Tween-80): 102 % of control
- T/C (dose: 40.0 mg/kg/injection, schedule: Q01DX001 (ip), vehicle: saline with Tween-80): 97 % of control
- T/C (dose: 40.0 mg/kg/injection, schedule: Q01DX009 (ip), vehicle: saline with Tween-80): 94 % of control
- T/C (dose: 40.0 mg/kg/injection, schedule: Q04DX003 (ip), vehicle: saline with Tween-80): 95 % of control
- T/C (dose: 80.0 mg/kg/injection, schedule: Q01DX009 (ip), vehicle: saline with Tween-80): 96 % of control
- T/C (dose: 80.0 mg/kg/injection, schedule: Q04DX003 (ip), vehicle: saline with Tween-80): 95 % of control
- T/C (dose: 160.0 mg/kg/injection, schedule: Q01DX001 (ip), vehicle: saline with Tween-80): 90 % of control
- T/C (dose: 160.0 mg/kg/injection, schedule: Q01DX009 (ip), vehicle: saline with Tween-80): 93 % of control
- T/C (dose: 160.0 mg/kg/injection, schedule: Q04DX003 (ip), vehicle: saline with Tween-80): 95 % of control
- T/C (dose: 320.0 mg/kg/injection, schedule: Q01DX001 (ip), vehicle: saline with Tween-80): 95 % of control
- T/C (dose: 320.0 mg/kg/injection, schedule: Q01DX009 (ip), vehicle: saline with Tween-80): 96 % of control
- T/C (dose: 320.0 mg/kg/injection, schedule: Q04DX003 (ip), vehicle: saline with Tween-80): 93 % of control
- T/C (dose: 640.0 mg/kg/injection, schedule: Q01DX001 (ip), vehicle: saline with Tween-80): 97 % of control
- T/C (dose: 640.0 mg/kg/injection, schedule: Q04DX003 (ip), vehicle: saline with Tween-80): 100 % of control

SMILES: O=C(O)C1OC1c1ccccc1 (configuration not stated)
- T/C [1]: 107 % of control
- T/C [2]: 91 % of control
- T/C [3]: 98 % of control
- T/C [4]: 100 % of control
- T/C [5]: 101 % of control
- T/C [6]: 97 % of control

SMILES: O=[N+]([O-])O.O=[N+]([O-])O.[NH-]C(c1ccccc1)C([NH-])c1ccccc1.[Pt+2] (configuration not stated)
- T/C [7]: 168 % of control
- T/C (dose: 12.5 mg/kg/injection, schedule: Q04DX003 (ip), vehicle: saline with Tween-80): 158 % of control
- T/C [8]: 189 % of control
- T/C (dose: 25.0 mg/kg/injection, schedule: Q04DX003 (ip), vehicle: saline with Tween-80): 168 % of control
- T/C [9]: 195 % of control

SMILES: O=C(c1ccccc1)C(c1ccccc1)C(SCc1ccccc1)c1ccccc1 (configuration not stated)
- T/C [10]: 88 % of control
- T/C [1]: 94 % of control
- T/C [11]: 90 % of control
- T/C [3]: 100 % of control
- T/C [12]: 98 % of control
- T/C [5]: 103 % of control

SMILES: Cn1cnc(=S)c2ccccc21
- T/C (dose: 25.0 mg/kg/injection, schedule: Q04DX003 (ip), vehicle: Klucel (hydroxypropylcellulose) (HPC)): 104 % of control
- T/C (dose: 50.0 mg/kg/injection, schedule: Q04DX003 (ip), vehicle: Klucel (hydroxypropylcellulose) (HPC)): 93 % of control

SMILES: Nc1cc2c(nnn2C(c2ccccc2)c2ccccc2)c(N)n1
- T/C (dose: 100.0 mg/kg/injection, schedule: Q01DX001 (ip), vehicle: carboxymethylcellulose (CMC)): 98 % of control
- T/C (dose: 200.0 mg/kg/injection, schedule: Q01DX001 (ip), vehicle: carboxymethylcellulose (CMC)): 92 % of control
- T/C (dose: 400.0 mg/kg/injection, schedule: Q01DX001 (ip), vehicle: carboxymethylcellulose (CMC)): 95 % of control

SMILES: CC(C)CN1C(=O)C2C3CCC(O3)C2C1=O (configuration not stated)
- T/C [13]: 95 % of control
- T/C [14]: 91 % of control
- T/C [15]: 102 % of control

SMILES: Nc1cc(S(=O)(=O)c2ccc(N3CCCCC3)c(N)c2)ccc1N1CCCCC1
- T/C [1]: 110 % of control
- T/C [3]: 113 % of control

SMILES: COC(=O)C1=CCCN(C)C1
- T/C (dose: 12.5 mg/kg/injection, schedule: Q01DX009 (ip), vehicle: saline): 98 % of control
- T/C (dose: 25.0 mg/kg/injection, schedule: Q01DX009 (ip), vehicle: saline): 104 % of control
- T/C (dose: 50.0 mg/kg/injection, schedule: Q01DX009 (ip), vehicle: saline): 98 % of control

SMILES: COc1ccc(NC(=O)Oc2ccc(SC)cc2)cc1
- T/C [13]: 98 % of control
- T/C [14]: 102 % of control
- T/C [15]: 98 % of control

SMILES: Cc1ccc2c(c1)CC(C)(C)O2
- T/C (dose: 50.0 mg/kg/injection, schedule: Q01DX001 (ip), vehicle: Klucel (hydroxypropylcellulose) (HPC)): 102 % of control
- T/C (dose: 100.0 mg/kg/injection, schedule: Q01DX001 (ip), vehicle: Klucel (hydroxypropylcellulose) (HPC)): 93 % of control
- T/C (dose: 200.0 mg/kg/injection, schedule: Q01DX001 (ip), vehicle: Klucel (hydroxypropylcellulose) (HPC)): 102 % of control

SMILES: O=C1C2CCN(CC2)C1CN1CCOCC1 (configuration not stated)
- T/C [8]: 96 % of control
- T/C [9]: 100 % of control
- T/C (dose: 50.0 mg/kg/injection, schedule: Q04DX003 (ip), vehicle: saline): 111 % of control

SMILES: CCOC(=O)Nc1cc2ncc(C(=O)N(C)c3ccccc3)nc2c(N)n1
- T/C [10]: 98 % of control
- T/C [11]: 88 % of control
- T/C [12]: 98 % of control

SMILES: c1ccc(CNc2ncnc3[nH]ncc23)cc1
- T/C (dose: 1.12 mg/kg/injection, schedule: Q01DX Z (ip), vehicle: carboxymethylcellulose (CMC)): 100 % of control
- T/C (dose: 2.25 mg/kg/injection, schedule: Q01DX Z (ip), vehicle: carboxymethylcellulose (CMC)): 103 % of control
- T/C (dose: 4.5 mg/kg/injection, schedule: Q01DX Z (ip), vehicle: carboxymethylcellulose (CMC)): 100 % of control
- T/C (dose: 9.0 mg/kg/injection, schedule: Q01DX Z (ip), vehicle: carboxymethylcellulose (CMC)): 102 % of control

SMILES: CC(=O)c1c(O)c(C)c(O)c2c1OC1=CC(=O)C(C(C)=O)C(=O)C12C (configuration not stated)
- T/C (dose: 25.0 mg/kg/injection, schedule: Q01DX009 (ip), vehicle: Klucel (hydroxypropylcellulose) (HPC)): 93 % of control
- T/C [16]: 93 % of control
- T/C [17]: 96 % of control

SMILES: N#CC(CCN1CCCCC1)(c1ccccc1)c1ccccc1
- T/C [2]: 97 % of control
- T/C [4]: 102 % of control
- T/C [6]: 97 % of control

SMILES: Nc1cc(=S)c2nnn(C3OC(CO)C(O)C3O)c2[nH]1 (configuration not stated)
- T/C (dose: 25.0 mg/kg/injection, schedule: Q01DX009 (ip), vehicle: water): 100 % of control
- T/C (dose: 50.0 mg/kg/injection, schedule: Q01DX009 (ip), vehicle: water): 104 % of control
- T/C (dose: 100.0 mg/kg/injection, schedule: Q01DX009 (ip), vehicle: water): 93 % of control
- T/C (dose: 200.0 mg/kg/injection, schedule: Q01DX009 (ip), vehicle: water): 86 % of control
- T/C (dose: 400.0 mg/kg/injection, schedule: Q01DX009 (ip), vehicle: water): 89 % of control

SMILES: NC(=S)/N=C\C(CC(O)C(O)C(O)CO)=N\NC(N)=S (configuration not stated)
- T/C (dose: 6.25 mg/kg/injection, schedule: Q01DX009 (ip), vehicle: saline with Tween-80): 96 % of control
- T/C (dose: 12.5 mg/kg/injection, schedule: Q01DX009 (ip), vehicle: saline with Tween-80): 96 % of control
- T/C (dose: 25.0 mg/kg/injection, schedule: Q01DX009 (ip), vehicle: saline with Tween-80): 95 % of control and 100 % of control
- T/C (dose: 50.0 mg/kg/injection, schedule: Q01DX009 (ip), vehicle: saline with Tween-80): 93 % of control and 101 % of control
- T/C [1]: 101 % of control
- T/C [3]: 86 % of control

SMILES: COC(=O)C(CS)NC(=O)CCNC(=O)OCc1ccccc1 (configuration not stated)
- T/C (dose: 12.5 mg/kg/injection, schedule: Q01DX009 (ip), vehicle: sodium bicarbonate): 100 % of control
- T/C (dose: 25.0 mg/kg/injection, schedule: Q01DX009 (ip), vehicle: sodium bicarbonate): 96 % of control
- T/C (dose: 50.0 mg/kg/injection, schedule: Q01DX009 (ip), vehicle: sodium bicarbonate): 91 % of control
- T/C (dose: 100.0 mg/kg/injection, schedule: Q01DX009 (ip), vehicle: sodium bicarbonate): 93 % of control
- T/C (dose: 200.0 mg/kg/injection, schedule: Q01DX009 (ip), vehicle: sodium bicarbonate): 88 % of control

SMILES: O=C(NNC(=O)c1ccncc1)NS(=O)(=O)c1ccc(Cl)cc1
- T/C [16]: 101 % of control
- T/C [17]: 90 % of control
- T/C (dose: 200.0 mg/kg/injection, schedule: Q01DX009 (ip), vehicle: Klucel (hydroxypropylcellulose) (HPC)): 97 % of control

SMILES: CCCc1cccc[n+]1CC(=O)c1ccccc1
- T/C [7]: 106 % of control
- T/C [8]: 98 % of control
- T/C [9]: 98 % of control

SMILES: CC(=O)NC(=O)CC(O)(c1ccccc1)c1ccccc1
- T/C [11]: 91 % of control
- T/C [12]: 88 % of control
